Reference: patent US8466193B2, “Selective inhibitors of histone deacetylase” (Pharmacyclics, Inc., priority 2008, dated 2013)

Assays:
HDAC3 = HDAC3 (Homo sapiens, UniProt O15379); assay: Histone deacetylase activity, continuous trypsin-coupled assay; type: biochemical; conditions: 15 minutes preincubation; substrate acetyl-Gly-Ala-(N-acetyl-Lys)-AMC
Experimental: (§1) HDAC activity was measured using a continuous trypsin-coupled assay that has been described in detail previously (US 20070281934; Schultz et. al., Biochemistry, 43 (34), 11083-11091, 2004; Kim et al. (2006), Methods Mol. Biol., 325:273-283). For inhibitor characterization, measurements were performed in a reaction volume of 100 μL using 96-well assay plates in a fluorescence plate reader. For each isozyme, the HDAC protein in reaction buffer (50 mM HEPES, 100 mM KCl, 0.001% Tween-20, 5% DMSO, pH 7.4, supplemented with bovine serum albumin at concentrations of 0-0.05%, was mixed with inhibitor at various concentrations and allowed to incubate for 15 minutes. Trypsin was added to a final concentration of 50 nM, and acetyl-Gly-Ala-(N-acetyl-Lys)-AMC was added to a final concentration of 25-100 μM to initiate the reaction. After a 30 minute lag time, the fluorescence was measured over a 30 minute time frame using an excitation wavelength of 355 nm and a detection wavelength of 460 nm. The increase in fluorescence with time was used as the measure of the reaction rate. Inhibition constants Ki(app) were obtained using the program BatchKi (Biokin, Pullman, Wash.).

HDAC2 = HDAC2 (Homo sapiens, UniProt Q92769); assay: as above; type: biochemical; conditions: 15 minutes preincubation; substrate acetyl-Gly-Ala-(N-acetyl-Lys)-AMC
Sequence of HDAC2 (Q92769 whole entry, species assumed): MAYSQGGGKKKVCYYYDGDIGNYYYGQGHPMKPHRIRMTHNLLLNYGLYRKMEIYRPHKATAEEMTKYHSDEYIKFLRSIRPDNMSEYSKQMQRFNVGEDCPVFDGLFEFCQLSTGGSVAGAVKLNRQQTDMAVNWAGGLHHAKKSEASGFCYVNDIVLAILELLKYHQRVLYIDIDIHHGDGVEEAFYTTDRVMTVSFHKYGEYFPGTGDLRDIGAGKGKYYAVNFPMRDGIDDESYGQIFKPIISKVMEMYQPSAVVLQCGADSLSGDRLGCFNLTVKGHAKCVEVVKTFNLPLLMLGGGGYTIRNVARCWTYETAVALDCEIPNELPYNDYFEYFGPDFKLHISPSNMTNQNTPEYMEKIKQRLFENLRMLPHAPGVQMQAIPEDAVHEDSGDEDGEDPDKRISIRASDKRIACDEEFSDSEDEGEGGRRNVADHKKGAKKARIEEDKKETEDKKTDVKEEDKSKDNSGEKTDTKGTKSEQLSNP
Experimental: as §1

HDAC1 = HDAC1 (Homo sapiens, UniProt Q13547); assay: as above; type: biochemical; conditions: 15 minutes preincubation; substrate acetyl-Gly-Ala-(N-acetyl-Lys)-AMC
Sequence of HDAC1 (Q13547 whole entry, species assumed): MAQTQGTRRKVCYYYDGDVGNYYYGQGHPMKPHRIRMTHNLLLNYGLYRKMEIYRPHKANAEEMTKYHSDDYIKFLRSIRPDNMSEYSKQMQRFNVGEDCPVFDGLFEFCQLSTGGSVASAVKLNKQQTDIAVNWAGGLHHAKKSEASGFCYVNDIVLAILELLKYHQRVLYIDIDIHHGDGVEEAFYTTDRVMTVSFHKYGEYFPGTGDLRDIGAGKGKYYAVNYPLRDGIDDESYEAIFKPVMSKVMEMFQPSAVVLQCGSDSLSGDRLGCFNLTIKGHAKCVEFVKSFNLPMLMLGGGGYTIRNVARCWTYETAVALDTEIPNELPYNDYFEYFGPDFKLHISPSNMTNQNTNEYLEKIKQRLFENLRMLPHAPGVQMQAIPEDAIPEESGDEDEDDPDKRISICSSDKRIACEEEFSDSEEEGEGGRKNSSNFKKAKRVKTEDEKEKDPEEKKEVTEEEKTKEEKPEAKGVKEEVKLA
Experimental: as §1

HDAC8 = target: T1, HDAC8 (Homo sapiens, UniProt Q9BY41); assay: as above; type: biochemical; conditions: 15 minutes preincubation; substrate acetyl-Gly-Ala-(N-acetyl-Lys)-AMC
T1 sequence (Q9BY41 1-377): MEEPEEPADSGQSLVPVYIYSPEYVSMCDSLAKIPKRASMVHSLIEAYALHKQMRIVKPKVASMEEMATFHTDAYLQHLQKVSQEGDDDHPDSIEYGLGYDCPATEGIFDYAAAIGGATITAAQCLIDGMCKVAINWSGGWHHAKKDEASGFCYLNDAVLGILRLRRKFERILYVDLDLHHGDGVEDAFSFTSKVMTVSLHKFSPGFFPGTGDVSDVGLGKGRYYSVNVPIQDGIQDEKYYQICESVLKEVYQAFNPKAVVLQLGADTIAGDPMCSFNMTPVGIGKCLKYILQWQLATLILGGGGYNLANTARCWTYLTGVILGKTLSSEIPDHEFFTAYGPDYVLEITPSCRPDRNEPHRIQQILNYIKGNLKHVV
Experimental: as §1

HDAC10 = target: T2, HDAC10 (Homo sapiens, UniProt Q969S8); assay: as above; type: biochemical; conditions: 15 minutes preincubation; substrate acetyl-Gly-Ala-(N-acetyl-Lys)-AMC
T2 sequence (Q969S8 1-669): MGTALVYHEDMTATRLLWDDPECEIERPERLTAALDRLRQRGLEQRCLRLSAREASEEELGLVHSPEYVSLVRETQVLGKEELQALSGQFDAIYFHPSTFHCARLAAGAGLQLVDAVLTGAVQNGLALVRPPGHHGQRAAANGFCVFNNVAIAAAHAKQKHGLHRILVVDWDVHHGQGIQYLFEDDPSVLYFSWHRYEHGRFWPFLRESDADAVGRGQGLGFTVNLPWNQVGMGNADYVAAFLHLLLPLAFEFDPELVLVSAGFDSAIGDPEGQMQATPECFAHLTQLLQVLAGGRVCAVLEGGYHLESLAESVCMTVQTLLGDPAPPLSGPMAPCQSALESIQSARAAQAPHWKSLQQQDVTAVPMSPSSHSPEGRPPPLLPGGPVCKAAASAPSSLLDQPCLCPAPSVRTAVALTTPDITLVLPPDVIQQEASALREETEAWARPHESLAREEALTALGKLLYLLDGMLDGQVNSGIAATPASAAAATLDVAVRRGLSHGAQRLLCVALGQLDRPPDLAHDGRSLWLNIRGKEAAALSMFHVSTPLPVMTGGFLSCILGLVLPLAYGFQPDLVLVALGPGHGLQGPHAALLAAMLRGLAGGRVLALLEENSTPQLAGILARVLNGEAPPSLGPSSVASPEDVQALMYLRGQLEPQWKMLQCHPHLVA
Experimental: as §1

HDAC6 = target: T3, HDAC6 (Homo sapiens, UniProt Q9UBN7); assay: as above; type: biochemical; conditions: 15 minutes preincubation; substrate acetyl-Gly-Ala-(N-acetyl-Lys)-AMC
T3 sequence (Q9UBN7 1-1215): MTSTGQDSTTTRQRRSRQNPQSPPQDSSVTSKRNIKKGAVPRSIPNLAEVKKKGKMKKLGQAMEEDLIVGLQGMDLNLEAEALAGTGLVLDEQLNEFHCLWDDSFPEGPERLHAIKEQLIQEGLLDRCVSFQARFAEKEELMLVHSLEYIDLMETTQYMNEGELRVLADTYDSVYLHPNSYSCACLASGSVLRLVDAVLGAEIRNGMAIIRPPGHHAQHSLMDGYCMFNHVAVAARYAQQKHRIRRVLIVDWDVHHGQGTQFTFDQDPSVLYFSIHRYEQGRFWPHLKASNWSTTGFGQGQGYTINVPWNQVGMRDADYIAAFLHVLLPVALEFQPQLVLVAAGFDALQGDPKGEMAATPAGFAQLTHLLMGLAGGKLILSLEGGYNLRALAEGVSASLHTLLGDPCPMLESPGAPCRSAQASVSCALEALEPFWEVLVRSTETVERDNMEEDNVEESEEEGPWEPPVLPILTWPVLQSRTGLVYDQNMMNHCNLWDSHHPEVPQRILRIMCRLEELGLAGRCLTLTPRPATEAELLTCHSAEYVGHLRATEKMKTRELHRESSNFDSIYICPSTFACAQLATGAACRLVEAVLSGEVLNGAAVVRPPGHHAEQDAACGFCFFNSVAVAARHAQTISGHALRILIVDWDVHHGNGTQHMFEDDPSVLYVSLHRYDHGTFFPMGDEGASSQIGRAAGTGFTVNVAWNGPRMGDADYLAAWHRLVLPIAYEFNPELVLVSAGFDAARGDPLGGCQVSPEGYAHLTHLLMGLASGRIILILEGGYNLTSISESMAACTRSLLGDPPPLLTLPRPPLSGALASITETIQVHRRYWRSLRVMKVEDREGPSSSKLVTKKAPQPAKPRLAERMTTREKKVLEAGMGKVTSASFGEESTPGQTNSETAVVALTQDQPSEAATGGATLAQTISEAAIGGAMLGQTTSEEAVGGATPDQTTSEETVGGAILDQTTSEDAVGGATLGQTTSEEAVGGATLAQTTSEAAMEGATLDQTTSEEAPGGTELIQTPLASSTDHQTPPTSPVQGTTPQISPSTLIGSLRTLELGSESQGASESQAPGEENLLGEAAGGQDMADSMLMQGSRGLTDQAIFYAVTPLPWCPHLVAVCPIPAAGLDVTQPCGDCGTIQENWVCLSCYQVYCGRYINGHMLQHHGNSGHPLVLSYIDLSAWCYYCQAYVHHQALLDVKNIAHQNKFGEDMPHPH
Experimental: as §1

Jurkat cells = assay: Cell proliferation assay, growth inhibition by Alamar Blue; type: cell-based; conditions: Homo sapiens, 72 h, Jurkat cells treated with compound for 3 days
Experimental: Cell lines were obtained from DSMZ (Braunschweig, Germany) or ATCC (Manassas, Va.). Cells were grown in RPMI 1640 with 10% fetal bovine serum in a 5% CO2/air incubator at 37° C. Thapsigargin and BAPTA-AM were from Calbiochem (San Diego, Calif.). 3-((dimethylamino)methyl)-N-(2-(4-(hydroxycarbamoyl)phenoxy)ethyl)benzofuran-2-carboxamide is a broad-spectrum HDAC inhibitor which was synthesized as previously described. Other analogs with varying degrees of specificity towards the HDAC isoforms were synthesized as described herein.
Tumor cell lines and human umbilical vein endothelial cells (HUVEC) were cultured for at least two doubling times, and growth was monitored at the end of compound exposure using an Alamar Blue™ (Biosource, Camarillo, Calif.) fluorometric cell proliferation assay as recommended by the manufacturer. Compounds were assayed in triplicate wells in 96-well plates. The concentration required to inhibit cell growth by 50% (GI50) and 95% confidence intervals were estimated from nonlinear regression using a 4-parameter logistic equation. The effect of HDAC8 selective inhibitor compounds on cell proliferation in Jurkat cells was measured. Apoptosis was measured by Annexin-V flow cytommetry. Growth inhibition was measured by Alamar Blue assay. Cells were treated with compound for 3 days.

Sequence of HDAC3 (O15379 whole entry, species assumed): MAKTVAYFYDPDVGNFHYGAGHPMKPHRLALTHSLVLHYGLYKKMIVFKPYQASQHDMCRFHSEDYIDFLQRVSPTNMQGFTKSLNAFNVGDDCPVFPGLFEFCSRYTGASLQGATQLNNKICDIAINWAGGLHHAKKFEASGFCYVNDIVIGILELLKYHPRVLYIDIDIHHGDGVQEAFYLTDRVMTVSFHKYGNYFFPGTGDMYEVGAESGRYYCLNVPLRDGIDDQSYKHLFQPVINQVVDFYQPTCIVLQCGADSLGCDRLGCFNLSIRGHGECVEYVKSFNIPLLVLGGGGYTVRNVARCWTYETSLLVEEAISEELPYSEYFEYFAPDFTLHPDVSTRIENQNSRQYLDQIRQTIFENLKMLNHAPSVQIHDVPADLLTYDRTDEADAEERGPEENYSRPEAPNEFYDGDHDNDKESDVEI
Sequence of HDAC3 (Q9Y618 395-489 partner limits assumed, species assumed): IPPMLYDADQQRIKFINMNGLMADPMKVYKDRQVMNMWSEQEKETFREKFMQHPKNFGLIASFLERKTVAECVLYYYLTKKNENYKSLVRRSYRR

Structure (SMILES) | IC50 (HDAC3) | IC50 (HDAC2) | IC50 (HDAC1) | IC50 (HDAC8) | IC50 (HDAC10) | IC50 (HDAC6) | GI50 (Jurkat cells)
O=C(Cn1ccc2ccc(C(=O)NO)cc21)Nc1ccccc1 [Compound 329, N-hydroxy-1-(2-oxo-2-(phenylamino)ethyl)-1H-indole-6-carboxamide] | > 10 µM | > 10 µM | > 10 µM | < 1 µM | > 10 µM | > 10 µM | 20.7 µM
O=C(NO)c1ccc2ccn(CCOc3cccc(CN4CCOCC4)c3)c2c1 [Compound 327, N-hydroxy-1-(2-(3-(morpholin-4-ylmethyl)phenoxy)ethyl)-1H-indole-6-carboxamide] | > 10 µM | > 10 µM | > 10 µM | < 1 µM | > 10 µM | 1 to 10 µM | 4.95 µM
CN(C)Cc1cccc(OCCn2ccc3ccc(C(=O)NO)cc32)c1 [Compound 324, N-hydroxy-1-(2-(3-(dimethylaminomethyl)phenoxy)ethyl)-1H-indole-6-carboxamide] | > 10 µM | > 10 µM | > 10 µM | < 1 µM | > 10 µM | 1 to 10 µM | 7.4 µM
CN(C)Cc1ccc(OCCn2ccc3ccc(C(=O)NO)cc32)cc1 [Compound 325, N-hydroxy-1-(2-(4-(dimethylaminomethyl)phenoxy)ethyl)-1H-indole-6-carboxamide] | > 10 µM | > 10 µM | > 10 µM | < 1 µM | > 10 µM | 1 to 10 µM | 13.4 µM
